Converted amounts (≈) assume the structure as drawn. The source made the active and inactive calls. The calls are words filed in the database; no cut-off is given here.
How the values were obtained:
Assay type in all cases: functional
Pseudomonas aeruginosa [1] = test: Antibacterial activity against Pseudomonas aeruginosa MTCC 424 after 16 hr by cup-plate method; conditions: MTCC 424, 16 h
Escherichia coli [2] = test: Antibacterial activity against Escherichia coli MTCC 443 after 16 hr by cup-plate method; conditions: MTCC 443, 16 h
[3] = system: Staphylococcus epidermidis; test: Antibacterial activity against Staphylococcus epidermidis MTCC 435 after 16 hr by cup-plate method; conditions: MTCC 435, 16 h
Bacillus subtilis [4] = test: Antibacterial activity against Bacillus subtilis MTCC 441 after 16 hr by cup-plate method; conditions: MTCC 441, 16 h
Staphylococcus aureus [5] = test: Antibacterial activity against Staphylococcus aureus MTCC 096 after 16 hr by cup-plate method; conditions: MTCC 096, 16 h
Candida albicans [6] = test: Antifungal activity against Candida albicans MTCC 227 at 100 ug/ml after 28 to 30 hr by cup-plate method; conditions: for zone of inhibition at 100 µg/mL: read-out: IZ
Aspergillus flavus [7] = test: Antifungal activity against Aspergillus flavus MTCC 277 at 100 ug/ml after 28 to 30 hr by cup-plate method; conditions: for zone of inhibition at 100 µg/mL: read-out: IZ
Aspergillus fumigatus [8] = test: Antifungal activity against Aspergillus fumigatus MTCC 343 at 100 ug/ml after 28 to 30 hr by cup-plate method; conditions: for zone of inhibition at 100 µg/mL: read-out: IZ
Aspergillus niger [9] = test: Antifungal activity against Aspergillus niger MTCC 282 at 100 ug/ml after 28 to 30 hr by cup-plate method; conditions: for zone of inhibition at 100 µg/mL: read-out: IZ
Klebsiella pneumoniae [10] = test: Antibacterial activity against Klebsiella pneumoniae MTCC 432 at 100 ug/ml after 16 to 18 hr by cup-plate method; conditions: read-out: IZ
Salmonella typhi = test: Antibacterial activity against Salmonella enterica subsp. enterica serovar Typhi MTCC 733 at 100 ug/ml after 16 to 18 hr by cup-plate method; conditions: read-out: IZ
Pseudomonas aeruginosa [11] = test: Antibacterial activity against Pseudomonas aeruginosa MTCC 424 at 100 ug/ml after 16 to 18 hr by cup-plate method; conditions: read-out: IZ
Escherichia coli [12] = test: Antibacterial activity against Escherichia coli MTCC 443 at 100 ug/ml after 16 to 18 hr by cup-plate method; conditions: read-out: IZ
[13] = system: Staphylococcus epidermidis; test: Antibacterial activity against Staphylococcus epidermidis MTCC 435 at 100 ug/ml after 16 to 18 hr by cup-plate method; conditions: read-out: IZ
Bacillus subtilis [14] = test: Antibacterial activity against Bacillus subtilis MTCC 441 at 100 ug/ml after 16 to 18 hr by cup-plate method; conditions: read-out: IZ
Staphylococcus aureus [15] = test: Antibacterial activity against Staphylococcus aureus MTCC 096 at 100 ug/ml after 16 to 18 hr by cup-plate method; conditions: read-out: IZ
Candida albicans [16] = test: Antifungal activity against Candida albicans MTCC 227 after 28 to 30 hr by cup-plate method
Aspergillus fumigatus [17] = test: Antifungal activity against Aspergillus fumigatus MTCC 343 after 28 to 30 hr by cup-plate method
Aspergillus flavus [18] = test: Antifungal activity against Aspergillus flavus MTCC 277 after 28 to 30 hr by cup-plate method
Aspergillus niger [19] = test: Antifungal activity against Aspergillus niger MTCC 282 after 28 to 30 hr by cup-plate method
Klebsiella pneumoniae [20] = test: Antibacterial activity against Klebsiella pneumoniae MTCC 432 after 16 hr by cup-plate method; conditions: MTCC 432, 16 h

| Compound | MIC (Pseudomonas aeruginosa [1]) [µg/mL] | MIC (Escherichia coli [2]) [µg/mL] | MIC [3] [µg/mL] | MIC (Bacillus subtilis [4]) [µg/mL] | MIC (Staphylococcus aureus [5]) [µg/mL] | zone of inhibition at 100 µg/mL (Candida albicans [6]) [mm] | zone of inhibition at 100 µg/mL (Aspergillus flavus [7]) [mm] | zone of inhibition at 100 µg/mL (Aspergillus fumigatus [8]) [mm] | zone of inhibition at 100 µg/mL (Klebsiella pneumoniae [10]) [mm] | zone of inhibition at 100 µg/mL (Salmonella typhi) [mm] | zone of inhibition at 100 µg/mL (Pseudomonas aeruginosa [11]) [mm] | zone of inhibition at 100 µg/mL (Escherichia coli [12]) [mm] | zone of inhibition at 100 µg/mL [13] [mm] | zone of inhibition at 100 µg/mL (Bacillus subtilis [14]) [mm] | zone of inhibition at 100 µg/mL (Staphylococcus aureus [15]) [mm] | MIC (Candida albicans [16]) [µg/mL] | MIC (Aspergillus fumigatus [17]) [µg/mL] | MIC (Aspergillus flavus [18]) [µg/mL] | MIC (Aspergillus niger [19]) [µg/mL] | MIC (Klebsiella pneumoniae [20]) [µg/mL] | also measured |
| --- | --- | --- | --- | --- | --- | --- | --- | --- | --- | --- | --- | --- | --- | --- | --- | --- | --- | --- | --- | --- | --- |
| c1ccc2c(c1)Sc1cccnc1N2CCCCCCN1c2ccccc2Sc2cccnc21 | 50 (≈ 104 µM) | 12.5 (≈ 25.9 µM) | 6.25 (≈ 12.9 µM) | 25 (≈ 51.8 µM) | 6.25 (≈ 12.9 µM) | 12 | 12 | 10 | 12 | 12 | 11 | 12 | 13 | 12 | 13 | 12.5 (≈ 25.9 µM) | > 50 | 25 (≈ 51.8 µM) | 25 (≈ 51.8 µM) | 25 (≈ 51.8 µM) | zone of inhibition at 100 µg/mL (Aspergillus niger [9]): 11 mm |
| Brc1ccc2c(c1)Sc1cccnc1N2CCCCCCN1c2ccc(Br)cc2Sc2cccnc21 | 6.25 (≈ 9.76 µM) | 6.25 (≈ 9.76 µM) | 6.25 (≈ 9.76 µM) | 12.5 (≈ 19.5 µM) | 25 (≈ 39 µM) | 11 | 12 | 11 | 12 | 11 | 13 | 12 | 14 | 13 | 12 | 25 (≈ 39 µM) | 25 (≈ 39 µM) | 12.5 (≈ 19.5 µM) | > 50 | 25 (≈ 39 µM) | zone of inhibition at 100 µg/mL (Aspergillus niger [9]): 11 mm |
| CC(=O)Nc1ccc(F)cc1Sc1ncccc1[N+](=O)[O-] | 6.25 (≈ 20.3 µM) | 6.25 (≈ 20.3 µM) | 25 (≈ 81.4 µM) | 25 (≈ 81.4 µM) | 12.5 (≈ 40.7 µM) | 14 | 10 | 16 | 11 | 12 | 14 | 14 | 12 | 12 | 13 | 6.25 (≈ 20.3 µM) | 6.25 (≈ 20.3 µM) | > 50 | 6.25 (≈ 20.3 µM) | > 50 | zone of inhibition at 100 µg/mL (Aspergillus niger [9]): 18 mm |
| Brc1ccc2c(c1)Sc1cccnc1N2C/C=C/CN1c2ccc(Br)cc2Sc2cccnc21 | > 50 | 12.5 (≈ 20.5 µM) | > 50 | 25 (≈ 41 µM) | 25 (≈ 41 µM) | 10 | 11 | 12 | 11 | 11 | 10 | 12 | 11 | 11 | 12 | > 50 | 12.5 (≈ 20.5 µM) | > 50 | > 50 | 50 (≈ 81.9 µM) | inhibition zone (IZ) (Aspergillus niger [9]): inactive |
| Clc1ccc2c(c1)Sc1cccnc1N2CCCCN1c2ccc(Cl)cc2Sc2cccnc21 | 50 (≈ 95.5 µM) | 12.5 (≈ 23.9 µM) | 6.25 (≈ 11.9 µM) | 50 (≈ 95.5 µM) | 25 (≈ 47.8 µM) | 11 | 12 | 11 | 11 | 12 | 11 | 12 | 12 | 11 | 12 | 25 (≈ 47.8 µM) | 50 (≈ 95.5 µM) | 12.5 (≈ 23.9 µM) | > 50 | > 50 | zone of inhibition at 100 µg/mL (Aspergillus niger [9]): 10 mm |
| c1ccc2c(c1)Sc1cccnc1N2CCCCN1c2ccccc2Sc2cccnc21 | 6.25 (≈ 13.7 µM) | > 50 | 12.5 (≈ 27.5 µM) | > 50 | 50 (≈ 110 µM) |  |  |  | 12 | 12 | 13 | 11 | 12 | 10 | 11 | > 50 | > 50 | > 50 | > 50 | 25 (≈ 55 µM) | inhibition zone (IZ) (Candida albicans [6]): inactive; inhibition zone (IZ) (Aspergillus flavus [7]): inactive; inhibition zone (IZ) (Aspergillus fumigatus [8]): inactive; inhibition zone (IZ) (Aspergillus niger [9]): inactive |

Reference: ChEMBL document CHEMBL3046749, “Synthesis and antimicrobial activity of novel bis-azaphenothiazines” (2013)
